Reference: PubChem BioAssay AID602296 (Broad Institute, 2012)
Results filed as inconclusive are left out. Activity calls are given as the source filed them.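 Rule for the calls: active = fitted activation curve crossing 40% at a concentration no higher than the sample's top valid tested dose; inconclusive = flat fitted curve at 30% to 70% activation, or poor curve fit; inactive = signal decrease, flat curve within 30%, or the rest.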

System: NIH3T3-HGL HSF-1 response element luciferase, 48 h
Test: sustained heat shock response element induction – cell-based, mouse, luciferase, cherry-pick, dose, confirmation (AID 602296);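 note: test compounds applied by themselves with no MG132 co-treatment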

c1ccc2[nH]c3cc4ncnc4cc3nc2c1
AC40: 5.43 µM

CC[C@@]1(O)C(=O)OCc2c1cc1n(c2=O)Cc2cc3c(N)cccc3nc2-1
AC40: 15.9 µM

COc1cc(/C=C(/C#N)C(=O)c2c(C)[nH]c3ccccc23)ccc1OCC#N
AC40: > 26 µM (inactive)

O=C(NCc1cccc(F)c1)c1noc2c1CCCC2
AC40: 6.03 µM

CCCn1c(SCC(=O)c2cc(OC)ccc2OC)nnc1C(C)C
AC40: > 26 µM (inactive)

CC1CCCCN1C(=O)COc1ccccc1F (configuration not stated)
AC40: 21.2 µM

Cc1nc2ccc(Br)cc2c(=O)n1Cc1cccs1
AC40: > 26 µM (inactive)

O=C(O)C(Cc1ccccc1)N1C(=O)c2c(Cl)c(Cl)c(Cl)c(Cl)c2C1=O (configuration not stated)
AC40: > 12 µM (inactive)

NC(=O)c1c(NC(=O)Cc2ccccc2)sc2c1CCN(Cc1ccccc1)C2
AC40: > 26 µM (inactive)

NC(=O)CSC1=N/C(=C\c2ccco2)C(=O)N1c1ccc(OC(F)F)cc1
AC40: 8.11 µM

O=C(Nc1ccccc1C(=O)OCC(=O)c1c[nH]c2ccccc12)c1ccco1
AC40: > 26 µM (inactive)

CCN1C(=O)CC(N2CCN(c3ccc(C(=O)c4ccccc4)cc3)CC2)C1=O (configuration not stated)
AC40: 3.85 µM

Nc1nc(SCC(=O)Nc2ccc([N+](=O)[O-])cc2Br)n[nH]1
AC40: > 26 µM (inactive)

CCOC(=O)CSc1cc(-c2ccccc2)nc2ncnn12
AC40: > 26 µM (inactive)

Cc1cc(/C=C(/C#N)c2cccc(Cl)c2)c(C)n1C
AC40: > 26 µM (inactive)

C[C@]12CC[C@@H]3c4cc(O)c(O)cc4CC[C@H]3[C@@H]1CC[C@@H]2O
AC40: 25.2 µM

O=C(CN1c2ccccc2S(=O)(=O)c2ccccc21)NCc1ccc(F)cc1
AC40: > 26 µM (inactive)

COC(=O)CC1C(=O)NCCN1C(=O)c1ccc(S(=O)(=O)N2CCOCC2)cc1 (configuration not stated)
AC40: > 26 µM (inactive)

N#Cc1ccccc1COC(=O)c1cc(=O)c2ccccc2o1
AC40: 26 µM

CCOC(=O)C1=NN(C(=O)c2ccccc2)C(O)(c2ccc(C)cc2)C1 (configuration not stated)
AC40: 8.91 µM

CC(CCc1ccccc1)NC(=O)CN1CCc2ccccc2C1 (configuration not stated)
AC40: > 26 µM (inactive)

CCOC(=O)c1c(-c2ccc(C)cc2)cn2ccccc12
AC40: > 26 µM (inactive)

Cn1c(C(=O)OC(C(=O)NC(C)(C)C)c2cccnc2)cc2sccc21 (configuration not stated)
AC40: > 26 µM (inactive)

CCOc1cc(/C=C2/SC(=S)N(CC3CCCO3)C2=O)ccc1O (configuration not stated)
AC40: > 26 µM (inactive)

CN1CCN(NC(=O)/C=C/c2ccc(Br)cc2)CC1
AC40: > 26 µM (inactive)

CN(C)CCNC(=O)/C(=C/c1ccc(-c2cccc(Cl)c2)o1)NC(=O)c1ccccc1
AC40: > 26 µM (inactive)

Cc1ccc(C(=O)Cn2nc(C(=O)O)c3ccccc3c2=O)cc1C
AC40: > 26 µM (inactive)

Cc1cc(C)n2nc(C(=O)N/N=C/c3c4ccccc4cc4ccccc34)nc2n1
AC40: > 12 µM (inactive)

O=C(CSc1nc2nccnc2c(=O)n1Cc1cccs1)Nc1ccccc1F
AC40: 9.52 µM

COc1ccc(N2CCN(c3ncnc4c3cnn4-c3ccc(C)cc3C)CC2)cc1
AC40: > 26 µM (inactive)

CC(Oc1ccc(F)cc1Br)c1nc2ccccc2c(=O)[nH]1 (configuration not stated)
AC40: 17.3 µM

O=C(Nc1cccn2ncnc12)C(F)(F)F
AC40: > 26 µM (inactive)

Cc1ncc([N+](=O)[O-])n1CCOC(=O)c1cc(Cl)cc(Cl)c1N
AC40: > 26 µM (inactive)

COc1ccc(/C=C/C(=O)OC2CCCN(C)C2)cc1 (configuration not stated)
AC40: 12.6 µM

O=C(CN1CCOCC1)N(c1ccccc1)c1ccc2ccccc2c1
AC40: 14.6 µM

CCc1nc2c(sc3nc4c(cc32)COC(C)(C)C4)c(=O)n1Cc1ccco1
AC40: > 26 µM (inactive)

CCOC(=O)N1CCC(NS(=O)(=O)c2ccc3c(c2)C(C)(C)C(=O)N3C)CC1
AC40: > 26 µM (inactive)

CCOC(=S)SCC(=O)Nc1nc(C)c(C)s1
AC40: 12.4 µM

CC1(C)c2cc(O)ccc2OC1N1CCOCC1 (configuration not stated)
AC40: > 26 µM (inactive)

Cc1nn(C(CC(=O)O)C(=O)O)c(C)c1Br (configuration not stated)
AC40: > 26 µM (inactive)

COc1ccc(-c2nnc3ccc(SCC(=O)NCC4CCCO4)nn23)cc1 (configuration not stated)
AC40: > 26 µM (inactive)

Cn1cc(C(=O)N/N=C/c2cc(Br)cs2)c2ccccc21
AC40: 11.3 µM
